Reference: PubChem BioAssay (NCI)
Values joined by “and” are separate entries in the source; they are usually repeats but may differ in a detail not shown here. Identical values can stand only once.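 Values below derive from 48-hour exposures of cells grown in 96-well plates, with endpoints linearly interpolated between the two concentrations bracketing the appropriate inhibition level. Abbreviation: GI50, concentration required for 50% inhibition of growth. The concentration for full growth arrest is given as TGI.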

How the values were obtained:
Assay in all cases: NCI anticancer screen, dose series, 48 h
DU-145 prostate = system: DU-145 prostate
HOP-92 NSCLC = system: HOP-92 NSCLC
MOLT-4 leukemia = system: MOLT-4 leukemia
OVCAR-3 ovarian = system: OVCAR-3 ovarian
SK-MEL-28 melanoma = system: SK-MEL-28 melanoma
SNB-19 CNS = system: SNB-19 CNS
SNB-75 CNS = system: SNB-75 CNS
T-47D breast = system: T-47D breast
TK-10 renal = system: TK-10 renal
UACC-62 melanoma = system: UACC-62 melanoma

COc1ccc(/C=C/C(=O)N[C@@H]2C(=O)N3[C@@H]2SC(C)(C)[C@@H]3C(=O)O)cc1OC
TGI (DU-145 prostate): > 100 µM
TGI (HOP-92 NSCLC): > 100 µM
TGI (MOLT-4 leukemia): > 100 µM
TGI (OVCAR-3 ovarian): > 100 µM
TGI (SK-MEL-28 melanoma): > 100 µM
TGI (SNB-19 CNS): > 100 µM
TGI (SNB-75 CNS): > 100 µM
TGI (T-47D breast): > 100 µM
TGI (TK-10 renal): > 100 µM
TGI (UACC-62 melanoma): > 100 µM

O=Cc1ccc(Oc2c3ccccc3nc3ccccc23)cc1
TGI (DU-145 prostate): 13.7 µM
TGI (HOP-92 NSCLC): 17.7 µM
TGI (MOLT-4 leukemia): 6.08 µM
TGI (OVCAR-3 ovarian): 26 µM
TGI (SK-MEL-28 melanoma): 25.6 µM
TGI (SNB-19 CNS): 36.4 µM
TGI (SNB-75 CNS): 29.5 µM
TGI (T-47D breast): 12.5 µM
TGI (TK-10 renal): 19.5 µM
TGI (UACC-62 melanoma): 2.74 µM

C[C@@H](Br)[C@@H]1CC[C@H]2c3[nH]c4ccccc4c3CCN2C1
TGI (DU-145 prostate): > 100 µM
TGI (HOP-92 NSCLC): 65.2 µM
TGI (MOLT-4 leukemia): 49.7 µM
TGI (OVCAR-3 ovarian): 42.4 µM
TGI (SK-MEL-28 melanoma): > 100 µM
TGI (SNB-19 CNS): 43.9 µM
TGI (SNB-75 CNS): 48.3 µM
TGI (T-47D breast): 61.2 µM
TGI (TK-10 renal): > 100 µM
TGI (UACC-62 melanoma): 33.5 µM

Cc1csc(CP(=O)(OC(C)C)OC(C)C)n1
TGI (DU-145 prostate): > 100 µM
TGI (HOP-92 NSCLC): > 100 µM
TGI (MOLT-4 leukemia): > 100 µM
TGI (OVCAR-3 ovarian): > 100 µM
TGI (SK-MEL-28 melanoma): > 100 µM
TGI (SNB-19 CNS): > 100 µM
TGI (SNB-75 CNS): > 100 µM
TGI (T-47D breast): > 100 µM
TGI (TK-10 renal): > 100 µM

COc1ccc(-c2c(C#N)c(N)n(C3OC(COC(C)=O)C(OC(C)=O)C(OC(C)=O)C3OC(C)=O)c(=S)c2C#N)cc1 (configuration not stated)
GI50 (DU-145 prostate): 84.2 µM and 34 µM
TGI (DU-145 prostate): > 100 µM
TGI (HOP-92 NSCLC): 82.8 µM and 49.4 µM
GI50 (MOLT-4 leukemia): > 100 µM and 37 µM
TGI (MOLT-4 leukemia): > 100 µM and 75.1 µM
GI50 (OVCAR-3 ovarian): 44.4 µM and 15.1 µM
TGI (OVCAR-3 ovarian): > 100 µM and 32.3 µM
GI50 (SK-MEL-28 melanoma): 91.5 µM and 18.6 µM
TGI (SK-MEL-28 melanoma): > 100 µM and 32.7 µM
TGI (SNB-19 CNS): > 100 µM
TGI (SNB-75 CNS): 63.4 µM and 50.9 µM
TGI (T-47D breast): > 100 µM and 46.5 µM
GI50 (TK-10 renal): 50.5 µM and 21.9 µM
TGI (TK-10 renal): > 100 µM and 49.3 µM
TGI (UACC-62 melanoma): 73.4 µM and 47.3 µM

C=CCOC1=C(OC(C)=O)C(C2COC(C)(C)O2)OC1=O (configuration not stated)
TGI (DU-145 prostate): > 100 µM
TGI (HOP-92 NSCLC): 34.5 µM
TGI (MOLT-4 leukemia): 43.8 µM
TGI (OVCAR-3 ovarian): 31.9 µM
TGI (SK-MEL-28 melanoma): 46.7 µM
TGI (SNB-19 CNS): > 100 µM
TGI (SNB-75 CNS): > 100 µM
TGI (T-47D breast): 39.7 µM
TGI (TK-10 renal): 68.7 µM
TGI (UACC-62 melanoma): 68.2 µM

CCN(CC)C(=O)CCNC(C)Cc1c[nH]c2ccccc12 (configuration not stated)
TGI (DU-145 prostate): > 100 µM
TGI (HOP-92 NSCLC): > 100 µM
TGI (MOLT-4 leukemia): > 100 µM
TGI (OVCAR-3 ovarian): > 100 µM
TGI (SK-MEL-28 melanoma): > 100 µM
TGI (SNB-19 CNS): > 100 µM
TGI (SNB-75 CNS): > 100 µM
TGI (T-47D breast): > 100 µM
TGI (TK-10 renal): > 100 µM
TGI (UACC-62 melanoma): > 100 µM

CCOc1ccnc2c(OC)c(C)c3nc4ccccc4nc3c12
TGI (DU-145 prostate): > 100 µM
TGI (HOP-92 NSCLC): > 100 µM
TGI (MOLT-4 leukemia): > 100 µM
TGI (OVCAR-3 ovarian): > 100 µM
TGI (SK-MEL-28 melanoma): > 100 µM
TGI (SNB-19 CNS): > 100 µM
TGI (SNB-75 CNS): > 100 µM
TGI (T-47D breast): 67 µM
TGI (TK-10 renal): > 100 µM

Cc1nc2ccccc2n1Cc1ccc(NC(=S)NC2CCCCC2)cc1
TGI (DU-145 prostate): > 100 µM
TGI (HOP-92 NSCLC): > 100 µM
TGI (MOLT-4 leukemia): > 100 µM
TGI (OVCAR-3 ovarian): > 70.3 µM
TGI (SK-MEL-28 melanoma): > 100 µM
TGI (SNB-19 CNS): > 100 µM
TGI (SNB-75 CNS): > 84.7 µM
TGI (T-47D breast): > 82.3 µM
TGI (TK-10 renal): > 100 µM
TGI (UACC-62 melanoma): > 89.7 µM

COc1cc(CNC(=O)CCCCCCCCCCSC#N)ccc1O
TGI (DU-145 prostate): 34.3 µM
TGI (HOP-92 NSCLC): 34.8 µM
TGI (MOLT-4 leukemia): 31.1 µM
TGI (OVCAR-3 ovarian): 26.2 µM
TGI (SK-MEL-28 melanoma): 21.1 µM
TGI (SNB-19 CNS): 48.3 µM
TGI (SNB-75 CNS): 29.3 µM
TGI (T-47D breast): 48.1 µM
TGI (TK-10 renal): 44 µM

CCOC(=O)CCNC(=O)c1cc(C)cc2c1Oc1c(cc(C)cc1C(=O)NCCC(=O)OCC)S2
TGI (DU-145 prostate): > 100 µM
TGI (HOP-92 NSCLC): 87.8 µM
TGI (MOLT-4 leukemia): > 100 µM
TGI (OVCAR-3 ovarian): > 100 µM
TGI (SK-MEL-28 melanoma): > 100 µM
TGI (SNB-19 CNS): > 100 µM
TGI (SNB-75 CNS): 78.9 µM
TGI (T-47D breast): > 100 µM
TGI (TK-10 renal): > 100 µM
TGI (UACC-62 melanoma): > 100 µM

COC(=O)CC(c1ccccc1)C(C#N)(OP1(=O)OC(c2ccccc2)C(C)N1C)c1ccccc1 (configuration not stated)
TGI (DU-145 prostate): > 100 µM
TGI (HOP-92 NSCLC): > 100 µM
TGI (MOLT-4 leukemia): 64.6 µM
TGI (OVCAR-3 ovarian): > 100 µM
TGI (SK-MEL-28 melanoma): > 100 µM
TGI (SNB-19 CNS): > 100 µM
TGI (SNB-75 CNS): > 100 µM
TGI (T-47D breast): > 100 µM
TGI (TK-10 renal): > 100 µM
TGI (UACC-62 melanoma): > 100 µM

CC(C)[Si](CC1=CCCCC12C(=O)N(COCC[Si](C)(C)C)c1ccccc12)(C(C)C)C(C)C (configuration not stated)
TGI (DU-145 prostate): > 100 µM
TGI (HOP-92 NSCLC): > 100 µM
TGI (MOLT-4 leukemia): > 100 µM
TGI (OVCAR-3 ovarian): > 100 µM
TGI (SK-MEL-28 melanoma): > 100 µM
TGI (SNB-19 CNS): > 100 µM
TGI (SNB-75 CNS): > 100 µM
TGI (T-47D breast): 96.9 µM
TGI (TK-10 renal): > 100 µM
TGI (UACC-62 melanoma): > 100 µM

CC1=NN(c2cccc(S(=O)(=O)O)c2)C2(C1)SCC(=O)N2c1nc2ccccc2s1 (configuration not stated)
TGI (DU-145 prostate): > 100 µM
TGI (HOP-92 NSCLC): > 100 µM
TGI (MOLT-4 leukemia): > 100 µM
TGI (OVCAR-3 ovarian): > 100 µM
TGI (SK-MEL-28 melanoma): > 100 µM
TGI (SNB-19 CNS): > 100 µM
TGI (SNB-75 CNS): > 100 µM
TGI (T-47D breast): > 100 µM
TGI (TK-10 renal): > 100 µM
TGI (UACC-62 melanoma): > 100 µM

O=C1N(c2ccccc2)N=C2c3ccncc3C3=NN(c4ccccc4)C(=O)C123 (configuration not stated)
TGI (DU-145 prostate): > 100 µM
TGI (HOP-92 NSCLC): > 100 µM
TGI (MOLT-4 leukemia): > 100 µM
TGI (OVCAR-3 ovarian): > 100 µM
TGI (SK-MEL-28 melanoma): > 100 µM
TGI (SNB-19 CNS): > 100 µM
TGI (SNB-75 CNS): > 100 µM
TGI (T-47D breast): > 100 µM
TGI (TK-10 renal): > 100 µM
TGI (UACC-62 melanoma): > 57.1 µM

O=[N+]([O-])C(=C(\Cl)NCCO)/C(Cl)=C(/Cl)Br
TGI (DU-145 prostate): 20.6 µM
TGI (HOP-92 NSCLC): 3.53 µM
TGI (MOLT-4 leukemia): 2.93 µM
TGI (OVCAR-3 ovarian): 2.62 µM
TGI (SK-MEL-28 melanoma): 5.51 µM
TGI (SNB-19 CNS): 18 µM
TGI (SNB-75 CNS): 9.08 µM
TGI (T-47D breast): 3.84 µM
TGI (TK-10 renal): 4.91 µM
TGI (UACC-62 melanoma): 4.78 µM

CCOC(=O)C1=CN(Cc2ccccc2)C2ON=C(c3ccc(Cl)cc3)C2C1 (configuration not stated)
TGI (DU-145 prostate): > 70 µM
TGI (HOP-92 NSCLC): > 100 µM
TGI (MOLT-4 leukemia): > 100 µM
TGI (OVCAR-3 ovarian): > 67.1 µM
TGI (SK-MEL-28 melanoma): > 71.8 µM
TGI (SNB-19 CNS): > 100 µM
TGI (SNB-75 CNS): > 72.5 µM
TGI (T-47D breast): 15.2 µM
TGI (TK-10 renal): > 81.3 µM
TGI (UACC-62 melanoma): > 69.2 µM
